Reference: patent US20230072683A1, “PYRIDO-PYRIMIDIN DERIVATIVES AND PHARMACEUTICAL COMPOSITION, FOR USE IN PREVENTING OR TREATING PI3 KINASE RELATED DISEASES, COMPRISING SAME AS ACTIVE INGREDIENT” (BORYUNG PHARMACEUTICAL CO., LTD, priority 2019, published 2023)
Like-named read-outs stand apart in the source and are kept apart here.

How the values were obtained:
[1] = target: PI3K-δ (PI3K(p1108/p857) (h)) (Homo sapiens, UniProt O00329); test: Evaluation of inhibitory activity against PI3K-δ (HTRF kinase assay); assay type: biochemical; conditions: for inhibition at 0.01 µM: compound concentration 0.01 μM, read-out: EXP_VALUE(% Inhibition) PI3K-δ 0.01 μM; for inhibition at 0.1 µM: read-out: EXP_VALUE(% Inhibition) PI3K-δ 0.1 μM
PI3K-δ (PI3K(p1108/p857) (h)), sequence (O00329 whole entry, the tested form may be a part): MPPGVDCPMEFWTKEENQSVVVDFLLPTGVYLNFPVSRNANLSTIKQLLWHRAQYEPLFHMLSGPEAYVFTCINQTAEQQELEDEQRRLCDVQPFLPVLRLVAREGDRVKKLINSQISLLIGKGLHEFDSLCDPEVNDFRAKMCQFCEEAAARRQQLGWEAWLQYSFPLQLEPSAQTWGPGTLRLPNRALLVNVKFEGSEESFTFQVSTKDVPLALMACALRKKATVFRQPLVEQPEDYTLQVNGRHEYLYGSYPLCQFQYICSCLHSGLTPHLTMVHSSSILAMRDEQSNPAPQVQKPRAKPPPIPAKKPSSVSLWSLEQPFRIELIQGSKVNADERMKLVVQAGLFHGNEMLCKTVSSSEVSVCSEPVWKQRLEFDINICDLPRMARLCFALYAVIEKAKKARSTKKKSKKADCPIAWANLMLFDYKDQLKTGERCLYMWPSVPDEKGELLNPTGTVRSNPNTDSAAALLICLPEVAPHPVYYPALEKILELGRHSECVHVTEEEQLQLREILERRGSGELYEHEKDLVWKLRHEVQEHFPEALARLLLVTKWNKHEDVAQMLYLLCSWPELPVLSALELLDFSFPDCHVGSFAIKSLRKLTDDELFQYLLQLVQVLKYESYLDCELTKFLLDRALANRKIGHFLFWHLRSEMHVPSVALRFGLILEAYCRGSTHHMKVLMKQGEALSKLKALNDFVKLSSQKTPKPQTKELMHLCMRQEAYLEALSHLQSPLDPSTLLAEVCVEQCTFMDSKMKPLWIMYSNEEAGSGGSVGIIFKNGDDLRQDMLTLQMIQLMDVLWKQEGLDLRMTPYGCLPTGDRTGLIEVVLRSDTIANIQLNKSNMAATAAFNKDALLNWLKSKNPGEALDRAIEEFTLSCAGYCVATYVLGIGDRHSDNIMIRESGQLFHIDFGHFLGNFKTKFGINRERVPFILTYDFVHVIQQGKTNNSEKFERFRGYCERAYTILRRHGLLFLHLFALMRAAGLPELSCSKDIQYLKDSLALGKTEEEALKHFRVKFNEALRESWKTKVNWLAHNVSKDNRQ
PI3K-δ (PI3K(p1108/p857) (h)), sequence (P27986 whole entry partner, the tested form may be a part): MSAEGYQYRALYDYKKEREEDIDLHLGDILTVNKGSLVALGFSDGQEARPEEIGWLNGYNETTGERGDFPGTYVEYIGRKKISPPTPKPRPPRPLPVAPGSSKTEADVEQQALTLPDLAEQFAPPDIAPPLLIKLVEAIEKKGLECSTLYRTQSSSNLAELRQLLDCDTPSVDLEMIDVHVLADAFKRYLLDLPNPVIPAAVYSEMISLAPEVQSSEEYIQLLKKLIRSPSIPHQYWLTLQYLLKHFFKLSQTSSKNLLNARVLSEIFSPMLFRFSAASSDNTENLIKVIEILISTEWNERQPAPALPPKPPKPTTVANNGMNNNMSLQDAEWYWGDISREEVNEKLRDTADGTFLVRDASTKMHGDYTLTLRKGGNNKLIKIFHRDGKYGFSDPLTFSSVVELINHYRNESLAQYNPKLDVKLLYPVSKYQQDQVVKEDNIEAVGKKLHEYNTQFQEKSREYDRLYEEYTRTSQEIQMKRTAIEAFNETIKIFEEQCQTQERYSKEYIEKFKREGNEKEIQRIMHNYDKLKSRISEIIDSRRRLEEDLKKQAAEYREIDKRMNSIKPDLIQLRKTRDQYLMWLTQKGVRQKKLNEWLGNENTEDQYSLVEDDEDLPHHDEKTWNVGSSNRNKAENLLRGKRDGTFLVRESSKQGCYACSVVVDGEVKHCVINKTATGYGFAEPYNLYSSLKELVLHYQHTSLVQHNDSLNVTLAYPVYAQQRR
Procedure, shortened: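 HTRF read-out (665/620 nm ratio ×10000) used Eu-labelled anti-GST, GST-tagged GRP1 PH domain and streptavidin-allophycocyanin after EDTA/PIP3 stop.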

[2] = target: DNA-PK(h) (Homo sapiens, UniProt P78527); test: Evaluation of inhibitory activity against DNA-PK (HTRF kinase assay, GST-cMyc-p53 substrate); assay type: biochemical; conditions: for inhibition at 0.01 µM: compound concentration 0.01 μM, read-out: EXP_VALUE(% Inhibition) DNA-PK(h) 0.01 μM; for inhibition at 0.1 µM: read-out: EXP_VALUE(% Inhibition) DNA-PK(h) 0.1 μM
Procedure, shortened: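 Human DNA-PK with 50 μM GST-cMyc-p53 substrate; reaction started with Mg/ATP, run 30 min at room temperature, stopped with EDTA. Phospho-Ser15 p53 detected by HTRF (Eu anti-phospho-Ser15, d2 anti-GST), signal = 10000×(Em 665/Em 620).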

Row | SMILES | inhibition at 0.01 µM [1] [%] | inhibition at 0.1 µM ([1]; compound concentration 0.1 μM) [%] | inhibition at 0.01 µM [2] [%] | inhibition at 0.1 µM ([2]; compound concentration 0.1 μM) [%] | inhibition at 0.1 µM ([1]; compound at 0.1 μM) [%] | inhibition at 0.1 µM ([2]; compound at 0.1 μM) [%]
1 | C[C@H](Nc1ncnc2[nH]ccc(=O)c12)c1c(Cl)c2cccc(C#Cc3ccccn3)c2c(=O)n1-c1ccccc1 [Example 308, (S)-4-((1-(4-chloro-1-oxo-2-phenyl-8-(pyridin-2-ylethynyl)-1,2-dihydroisoquinolin-3-yl)ethyl)amino)pyrido[2,3-d]pyrimidin-5(8H)-one] | 28.4 | 60.3 | 21.5 | 70.3 | – | –
2 | C[C@H](Nc1ncnc2[nH]ccc(=O)c12)c1c(Cl)c2cccc(-c3ccc(C(F)(F)F)nc3)c2c(=O)n1-c1ccccc1 [Example 181, (S)-4-((1-(4-chloro-1-oxo-2-phenyl-8-(6-(trifluoromethyl)pyridin-3-yl)-1,2-dihydroisoquinolin-3-yl)ethyl)amino)pyrido[2,3-d]pyrimidin-5(8H)-one] | 101 | – | 61 | – | – | –
3 | C[C@H](Nc1ncnc2[nH]ccc(=O)c12)c1c(Cl)c2cccc(-c3cc(O)ncn3)c2c(=O)n1-c1ccccc1 [Example 50, (S)-4-((1-(4-chloro-8-(6-hydroxypyrimidin-4-yl)-1-oxo-2-phenyl-1,2-dihydroisoquinolin-3-yl)ethyl)amino)pyrido[2,3-d]pyrimidin-5(8H)-one] | 96 | – | 53 | – | – | –
4 | C[C@H](Nc1ncnc2[nH]ccc(=O)c12)c1c(Cl)c2cccc(-c3ccc4[nH]ccc4c3)c2c(=O)n1-c1ccccc1 [Example 73, (S)-4-((1-(4-chloro-8-(1H-indol-5-yl)-1-oxo-2-phenyl-1,2-dihydroisoquinolin-3-yl)ethyl)amino)pyrido[2,3-d]pyrimidin-5(8H)-one] | 72 | 86 | 53 | 92 | – | –
5 | C[C@H](Nc1ncnc2[nH]ccc(=O)c12)c1c(Cl)c2cccc(-c3cccc4[nH]ccc34)c2c(=O)n1-c1ccccc1 [Example 89, (S)-4-((1-(4-chloro-8-(1H-indol-4-yl)-1-oxo-2-phenyl-1,2-dihydroisoquinolin-3-yl)ethyl)amino)pyrido[2,3-d]pyrimidin-5(8H)-one] | 58 | 92 | 17 | 52 | – | –
6 | C[C@H](Nc1ncnc2[nH]ccc(=O)c12)c1c(Cl)c2cccc(C3CC3)c2c(=O)n1-c1ccccc1 [Example 66, (S)-4-((1-(4-chloro-8-cyclopropyl-1-oxo-2-phenyl-1,2-dihydroisoquinolin-3-yl)ethyl)amino)pyrido[2,3-d]pyrimidin-5(8H)-one] | 72 | 103 | 59 | 92 | – | –
7 | C[C@H](Nc1ncnc2[nH]ccc(=O)c12)c1c(Cl)c2cccc(-c3ccc4nccnc4c3)c2c(=O)n1-c1ccccc1 [Example 137, (S)-4-((1-(4-chloro-1-oxo-2-phenyl-8-(quinoxalin-6-yl)-1,2-dihydroisoquinolin-3-yl)ethyl)amino)pyrido[2,3-d]pyrimidin-5(8H)-one] | 84 | 92 | 87 | 100 | – | –
8 | C[C@H](Nc1ncnc2[nH]ccc(=O)c12)c1c(Cl)c2cccc(N3C[C@]4(C)C[C@H]3CC(C)(C)C4)c2c(=O)n1-c1ccccc1 [Example 327, 4-(((S)-1-(4-chloro-1-oxo-2-phenyl-8-((1S,5R)-1,3,3-trimethyl-6-azabicyclo[3.2.1]octan-6-yl)-1,2-dihydroisoquinolin-3-yl)ethyl)amino)pyrido[2,3-d]pyrimidin-5(8H)-one] | 4 | 25 | -13 | 8 | – | –
9 | CSc1ncc(-c2cccc3c(Cl)c([C@H](C)Nc4ncnc5[nH]ccc(=O)c45)n(-c4ccccc4)c(=O)c23)cn1 [Example 214, (S)-4-((1-(4-chloro-8-(2-(methylthio)pyrimidin-5-yl)-1-oxo-2-phenyl-1,2-dihydroisoquinolin-3-yl)ethyl)amino)pyrido[2,3-d]pyrimidin-5(8H)-one] | 99 | – | 70 | – | – | –
10 | COc1ccc(-c2cccc3c(Cl)c([C@H](C)Nc4ncnc5[nH]ccc(=O)c45)n(-c4ccccc4)c(=O)c23)cn1 [Example 133, (S)-4-((1-(4-chloro-8-(6-methoxypyridin-3-yl)-1-oxo-2-phenyl-1,2-dihydroisoquinolin-3-yl)ethyl)amino)pyrido[2,3-d]pyrimidin-5(8H)-one] | 78 | 88 | 79 | 99 | – | –
11 | C[C@H](Nc1ncnc2[nH]ccc(=O)c12)c1c(Cl)c2cccc(-c3cccnc3)c2c(=O)n1-c1ccccc1 [Example 4, (S)-4-((1-(4-chloro-1-oxo-2-phenyl-8-(pyridin-3-yl)-1,2-dihydroisoquinolin-3-yl)ethyl)amino)pyrido[2,3-d]pyrimidin-5(8H)-one] | 101 | 109 | 53 | 99 | – | –
12 | CC(C)C1CCN(c2cccc3c(Cl)c([C@H](C)Nc4ncnc5[nH]ccc(=O)c45)n(-c4ccccc4)c(=O)c23)CC1 [Example 76, (S)-4-((1-(4-chloro-8-(4-isopropylpiperidin-1-yl)-1-oxo-2-phenyl-1,2-dihydroisoquinolin-3-yl)ethyl)amino)pyrido[2,3-d]pyrimidin-5(8H)-one] | 14 | 43 | 1 | 20 | – | –
13 | CCCCC(=O)Nc1cccc2c(Cl)c([C@H](C)Nc3ncnc4[nH]ccc(=O)c34)n(-c3ccccc3)c(=O)c12 [Example 297, (S)—N-(4-chloro-1-oxo-3-(1-((5-oxo-5,8-dihydropyrido[2,3-d]pyrimidin-4-yl)amino)ethyl)-2-phenyl-1,2-dihydroisoquinolin-8-yl)pentanamide] | 9 | – | 45 | – | – | –
14 | C[C@H](Nc1ncnc2[nH]ccc(=O)c12)c1c(Cl)c2cccc(N3CCCC3)c2c(=O)n1-c1ccccc1 [Example 252, (S)-4-((1-(4-chloro-1-oxo-2-phenyl-8-(pyrrolidin-1-yl)-1,2-dihydroisoquinolin-3-yl)ethyl)amino)pyrido[2,3-d]pyrimidin-5(8H)-one] | 53 | 97 | 4 | 42 | – | –
15 | C[C@H](Nc1ncnc2[nH]ccc(=O)c12)c1c(Cl)c2cccc(-c3ccc[nH]3)c2c(=O)n1-c1ccccc1 [Example 258, (S)-4-((1-(4-chloro-1-oxo-2-phenyl-8-(1H-pyrrol-2-yl)-1,2-dihydroisoquinolin-3-yl)ethyl)amino)pyrido[2,3-d]pyrimidin-5(8H)-one] | 86 | 101 | 13 | 12 | – | –

Results, then the molecule that gave them:

Row | inhibition at 0.01 µM [1] [%] | inhibition at 0.1 µM ([1]; compound concentration 0.1 μM) [%] | inhibition at 0.01 µM [2] [%] | inhibition at 0.1 µM ([2]; compound concentration 0.1 μM) [%] | inhibition at 0.1 µM ([1]; compound at 0.1 μM) [%] | inhibition at 0.1 µM ([2]; compound at 0.1 μM) [%] | SMILES
16 | 43 | 91 | 21 | 67 | – | – | C[C@H](Nc1ncnc2[nH]ccc(=O)c12)c1c(Cl)c2cccc(N3Cc4ccccc4C3)c2c(=O)n1-c1ccccc1 [Example 340, (S)-4-((1-(4-chloro-8-(isoindolin-2-yl)-1-oxo-2-phenyl-1,2-dihydroisoquinolin-3-yl)ethyl)amino)pyrido[2,3-d]pyrimidin-5(8H)-one]
17 | – | – | – | – | 89 | 18 | C[C@H](Nc1ncnc2[nH]ccc(=O)c12)c1c(Cl)c2cccc(S(C)(=O)=O)c2c(=O)n1-c1ccccc1 [Example 390, (S)-4-((1-(4-chloro-8-(methylsulfonyl)-1-oxo-2-phenyl-1,2-dihydroisoquinolin-3-yl)ethyl)amino)pyrido[2,3-d]pyrimidin-5(8H)-one]
18 | 56 | – | 48 | – | – | – | C[C@H](Nc1ncnc2[nH]ccc(=O)c12)c1c(Cl)c2cccc([C@@H](C)O)c2c(=O)n1-c1ccccc1 [Example 361, 4-(((S)-1-(4-chloro-8-((R)-1-hydroxyethyl)-1-oxo-2-phenyl-1,2-dihydroisoquinolin-3-yl)ethyl)amino)pyrido[2,3-d]pyrimidin-5(8H)-one]
19 | – | – | – | – | 17 | 53 | CCC[S@](=N)(=O)c1cccc2c(Cl)c([C@H](C)Nc3ncnc4[nH]ccc(=O)c34)n(-c3ccccc3)c(=O)c12 [Example 409, 4-(((S)-1-(4-chloro-1-oxo-2-phenyl-8-((S)-propylsulfonimidoyl)-1,2-dihydroisoquinolin-3-yl)ethyl)amino)pyrido[2,3-d]pyrimidin-5(8H)-one]
20 | – | – | – | – | 1 | 29 | C[C@H](Nc1ncnc2[nH]ccc(=O)c12)c1c(Cl)c2cccc(SC3COC3)c2c(=O)n1-c1ccccc1 [Example 418, (S)-4-((1-(4-chloro-8-(oxetan-3-ylthio)-1-oxo-2-phenyl-1,2-dihydroisoquinolin-3-yl)ethyl)amino)pyrido[2,3-d]pyrimidin-5(8H)-one]
21 | – | – | – | – | 9 | 18 | C[C@H](Nc1ncnc2[nH]ccc(=O)c12)c1c(Cl)c2cccc([S@@](=N)(=O)c3ncccn3)c2c(=O)n1-c1ccccc1 [Example 422, 4-(((S)-1-(4-chloro-1-oxo-2-phenyl-8-((R)-pyrimidine-2-sulfonimidoyl)-1,2-dihydroisoquinolin-3-yl)ethyl)amino)pyrido[2,3-d]pyrimidin-5(8H)-one]
